Experimental data as given in patent US12077607B2, “Functional and therapeutic effects of PAR4 cleavage by cathepsin G” (UNIVERSITY OF UTAH RESEARCH FOUNDATION, priority 2021, dated 2024).
Entries after “also recorded” stand apart in the source; their conditions may differ.

How the values were obtained:
dog washed platelets = experiment: Platelet aggregation of dog washed platelets; assay type: cell-based; details: 1 U/mL human thrombin, 1 μM human CatG or 1 mM RA-11mer
Description: Animal studies. Mouse platelets were isolated as previously described from C57BL/6 mice (Denorme et al., Blood. 2020; 135(6):429-440). Dog platelets were isolated from whole blood drawn into ACD using a similar isolation procedure as for human platelets. All animal studies were approved by the University of Utah Institutional Animal Care and Use Committee (18-10012).
Platelet and neutrophil isolation. Platelets and neutrophils were isolated as previously described (Yost et al., J Clin Invest. 2016; 126(10):3783-3798). Platelet isolation from dogs, rats and mice was approved by the IACUC. Platelet activation and aggregation were performed as previously described (Manne et al., Blood. 2020; 136(11): 1317-1329).
Platelet isolation, aggregation, and activation. Human washed platelets were prepared and resuspended in Tyrode's Buffer at 2×10^8/mL as described (Edelstein et al., Nat Med. 2013; 19(12):1609-1616). For human and dog platelet comparisons, platelets were prepared using a modified human platelet protocol with final concentrations of […] (Cayman Chemical, Ann Arbor, MI, USA) used during centrifugation steps. Centrifugations after Tyrode's washes was decreased to 1,250×g as described in Cremer et al., PLOS One. 2019; 14(11): e0224891. Platelet aggregation was measured under stirring conditions at 37° C. using a PAP-8E aggregometer after treatment with the following agonists: arachidonic acid (Bio/Data Corporation, Horsham, PA, USA), cathepsin G, elastase, proteinase 3 (Athens Research Group), α-thrombin (Sigma, St. Louis, MO, USA), PAR-1 peptide (SFLLRN) (GL Biochem, China). P-selectin and PAC-1 were measured as previously described (Yee et al., J Thromb Haemost. 2006; 4(9):2043-2050; Tourdot et al., Arterioscler Thromb Vasc Biol. 2014; 34(12):2644-2650).

PAR4-B (SEQ ID NO: 7) = molecular target: T1, PAR4-B (SEQ ID NO: 7) (Homo sapiens, UniProt Q96RI0); experiment: PAR4 peptide cleavage analysis by LC-MS/MS, PAR4-B; assay type: biochemical; details: thrombin 100 U/mL or 100 nM, CatG 400 nM, 37° C.
T1 construct: purchased BIOMATIK (Wilmington, DE, USA); host or cells: chemical synthesis
T1 sequence (Q96RI0 36-58 limits assumed): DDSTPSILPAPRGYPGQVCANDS
Procedure: PAR-4 Peptide and Cleavage Analysis. PAR4 synthetic peptides were incubated with protease, snapped frozen, and sent for mass spectrometry analysis. PAR-4B ([…]; SEQ ID NO: 7) and PAR-4C ([…]; SEQ ID NO: 8) were synthesized by BIOMATIK (Wilmington, DE, USA). PAR4-B and PAR4-C were incubated with vehicle, thrombin (100 nM) or cathepsin G (400 nM) at 37° C. for 15 minutes to an hour depending on the experimental condition. After digestion with the indicated protease, reactions were snapped frozen and sent to the University of Arizona, Analytical and Biological Mass Spectrometry Core Facility (Tucson, Arizona) for analysis. LC-MS/MS analysis was done on a Q Exactive Plus mass spectrometer (Thermo Fisher Scientific, San Jose, CA) equipped with an EASY-Spray nanoESI source. Peptides (500 ng) were injected onto an Acclaim Pepmap 100 trap column (75 micron ID x 2 cm, Thermo Scientific), washed for 10 min at 3% mobile phase B (acetonitrile, 0.1% formic acid, mobile phase A consisting of water and 0.1% formic acid) then eluted onto an Acclaim PepMap RSLC analytical column (75 micron ID x 25 cm, Thermo Scientific using a 3-20% gradient of B over 40 min, 20-50% solvent B over 5 min, 50-95% of solvent B over 5 min, then a hold of solvent 95% B for 10 min, and finally a return to 3% solvent B for 1 min, then a hold at 3% B for 10 min. Flow rates were 300 nL/min using a Dionex Ultimate 3000 RSLCnano System (Thermo Scientific). […] The peptide identification results were further analyzed with Scaffold Q+S v 4.8.7 (Proteome Software Inc., Portland OR), a program that relies on various search engine results (i.e.: Sequest, X!Tandem, MASCOT) and which uses Bayesian statistics to reliably identify more spectra9.

washed platelets = experiment: Platelet calcium flux assay; assay type: cell-based, human; details: CatG 500 nM
Procedure: Platelet calcium flux assay. Washed platelets were incubated at 37° C. for 1 hour in Tyrode's buffer (supplemented with pgel and heparin) with Fura-2AM (final concentration 2 μM). Platelets were washed and resuspended to a final concentration of 4×10^8/mL. Platelets were dispensed into a Costar 96-well half area clear bottom plate and placed in the Flexstation 3 (Molecular Devices) where cathepsin G (500 nM), buffer, or peptides (2 mM) were injected onto cells and calcium flux monitored.
GYPGQV-NH2 (SEQ ID NO: 5), RALLLGWVPTR-NH2 (SEQ ID NO: 1), ALLLGWVPTR-NH2 (SEQ ID NO: 2), RALLLG-NH2 (SEQ ID NO: 4). Peptides were synthesized by BIOMATIK (Wilmington, DE, USA) at similar purities. All peptides were suspended in 50% DMSO and 50% ethanol. To measure platelet activation, washed platelets were stimulated with various concentrations of the peptide in the presence of CD41-APC, P-selectin (PE) and PAC-1 (FITC) for 15 minutes at 37° C. and then fixed with FACS Lysis Buffer. Samples were immediately run on a Cytoflex flow cytometer. In some experiments, platelets were stimulated with peptides and platelet aggregation performed as described above. Platelet calcium flux was induced by RALLLGWVPTR (2 mM; SEQ ID NO: 1), CatG (500 nM), ALLLGWVPTR (2 mM; SEQ ID NO: 2) or tyrodes buffer and monitored as described above.

In the case of thrombin, the “platelet aggregation, species comparison: dogs” value (dog washed platelets) is reported as “induced platelet aggregation”, the “cleavage of PAR4-B peptide” value (PAR4-B (SEQ ID NO: 7)) is reported as “cleaved by thrombin between amino acids Arg47 and Gly48” and the “cleavage of PAR4-B peptide” value (PAR4-B (SEQ ID NO: 7); listed as Thrombin) is reported as “proteolyzed virtually all”.
In the case of “CatG: serine protease cathepsin G released by activated neutrophils”, the “peak platelet calcium flux, CatG compared with RALLLGWVPTR” value (washed platelets; RA-11mer 2 mM) is reported as “similar”, the platelet calcium flux (washed platelets; peptides 2 mM, FURA2-AM loaded washed platelets) is reported as “decreased over time” and the “platelet aggregation, species comparison: dogs” value (dog washed platelets) is reported as “induced platelet aggregation; also recorded: not as responsive”. For the same substance, the “cleavage of PAR4-B peptide” value (PAR4-B (SEQ ID NO: 7)) was “largely intact; also recorded: little cleavage”.
